Source: patent US20220409620A1, “REDUCING IMMUNOGENICITY TO PEGLOTICASE” (Horizon Pharma Rheumatology LLC, priority 2016, published 2022)

System: adult patients with uncontrolled gout
Assay: Serum uric acid (sUA) levels and sUA responder rate, open-label study of pegloticase with MTX (MIRROR OL)
Format: in vivo, human
Description: The primary objective is to estimate the response rate during Month 6 (Weeks 20, 22, and 24), as measured by the sustained normalization of serum uric acid (SUA) to <6 mg/dL for at least 80% of the time during Month 6 in subjects receiving KXX with MTX.
The primary efficacy outcome endpoint is the sustained normalization of SUA to <6 mg/dL for at least 80% of the time during month 6 (weeks 20, 22, and 24) in subjects receiving KXX with MTX. […] Participants who achieve this endpoint were classified as “responders.” Serum uric acid (SUA) responders may also be defined as participants achieving and maintaining SUA <6 mg/dL for at least 80% of the time during Month 6 (Weeks 20, 22, and 24).
Blood samples may be collected prior to each pegloticase infusion for measurement of SUA levels using the Beckman Coulter AU System Uric Acid procedure. Participants were declared “non-responders” if there were SUA measures >6 mg/dL at 2 consecutive study visits beginning with the week 2 visit. […] This assumption and subsequent discontinuation of pegloticase was consistent with the protocol of large phase III randomized controlled trials and the product label. A formal stopping rule was 2 occasions of SUA levels of greater than 6 mg/dL.
Clinical Chemistry—Blood samples were collected prior to each pegloticase infusion for measurement of SUA levels (primary efficacy parameter) using the Beckman Coulter AU System Uric Acid procedure. In this procedure uric acid is converted to hydrogen peroxide. Hydrogen peroxide reacts with reagent to produce a chromophore which is read bichromatically at 660/800 nm. The amount of dye formed is proportional to the uric acid concentration in the sample.
Serum samples for measurement of SUA levels were collected at the Screening Visit, the Week −4 Visit (prior to the first dose of MTX), and the Week −2 Visit during the MTX Run-in Period; within 48 hours prior to each pegloticase infusion and after the end of each pegloticase infusion prior to discharge from the site during the Pegloticase+IMM Period; at the non-infusion Week 52/End of Study/Early Termination Visits and at the Post Treatment 3 and 6 Month Follow-up Visits. Additional serum samples for SUA levels were collected at optional non-infusion (Frequent Sampling) Visits at Weeks 1 and 7. […] Subjects with SUA level >6 mg/dL at 2 consecutive visits beginning at Week 2 visit discontinued treatment, completed the End of Pegloticase Infusion Visit procedures within 2 weeks and continued the subject visits according to the protocol (without treatment).
Efficacy analyses were performed using the modified intention-to-treat (mITT) population, defined as all enrolled subjects who received ≥1 dose of pegloticase. The proportion of Month 6 responders was summarized, along with a 95% confidence interval for the proportion. The proportion of Month 3 and overall (Months 3 and 6 combined) responders was analyzed similarly.
A subject was declared a non-responder if the subject had SUA level >6 mg/dL at 2 consecutive study visits beginning with the Week 2 Visit. In addition, a subject who withdraws from study treatment for any reason after the first dose of pegloticase in the KXX+MTX Period and prior to Month 6 (for the primary endpoint) or Month 3 (for the secondary endpoint) was considered a non-responder if SUA values were not collected at the planned time points.
Patients were administered oral MTX (15 mg/week) and folate (1 mg/day) 4 weeks prior to the first pegloticase infusion (Day 1) and throughout the pegloticase treatment period. Blood was drawn prior to each infusion to measure sUA level, monitor clinical parameters, and examine for ADA development. All patients followed typical IR prophylaxis protocols (fexofenadine one day before and the morning of each infusion and acetaminophen and IV corticosteroid the morning of each infusion).

[1] = Month 6 sUA Responders, Week 48-Post-Infusion, n=3
[2] = Month 6 sUA Responders, Week 48-Pre-Infusion, n=2
[3] = Month 6 sUA Responders, Week 50-Post-Infusion, n=3
[4] = Month 6 sUA Responders, Week 50-Pre-Infusion, n=2
[5] = Month 6 sUA Responders, Week 52/ET, n=2
[6] = Week 2 - Post-Infusion, mITT Population
[7] = Week 2 - Pre-Infusion, mITT Population
[8] = Week 4 - Post-Infusion, mITT Population
[9] = Week 4 - Pre-Infusion, mITT Population
[10] = Week 6 - Post-Infusion, mITT Population
[11] = Week 6 - Pre-Infusion, mITT Population

With pegloticase the “Serum Uric Acid, Change from Baseline, Mean (SD)” value (shortened to “Serum Uric Acid, Change … (SD)”) [1] was −10.33 (4.922) mg/dL, the “Serum Uric Acid, Change from Baseline, Median” value [1] was -9.80 mg/dL and the “Serum Uric Acid, Observed, Mean (SD)” value [1] was 1.60 (2.252) mg/dL. The “Serum Uric Acid, Observed, Median” value [1] was 0.30 mg/dL, the “sUA <6 mg/dL, n (%)” value [1] was 3 (100%) and the “Serum Uric Acid, Change … (SD)” value [2] was −12.65 (4.031) mg/dL. The “Serum Uric Acid, Change from Baseline, Median” value [2] was -12.65 mg/dL, the “Serum Uric Acid, Observed, Mean (SD)” value [2] was 0.30 (0.000) mg/dL and the “Serum Uric Acid, Observed, Median” value [2] was 0.30 mg/dL. For the same substance, the “sUA <6 mg/dL, n (%)” value [2] was 2 (100%), the “Serum Uric Acid, Change … (SD)” value [3] was −10.57 (4.598) mg/dL and the “Serum Uric Acid, Change from Baseline, Median” value [3] was -9.80 mg/dL. For the same substance, the “Serum Uric Acid, Observed, Mean (SD)” value [3] was 1.37 (1.848) mg/dL, the “Serum Uric Acid, Observed, Median” value [3] was 0.30 mg/dL and the “sUA <6 mg/dL, n (%)” value [3] was 3 (100%). The “Serum Uric Acid, Change … (SD)” value [4] was −12.65 (4.031) mg/dL, the “Serum Uric Acid, Change from Baseline, Median” value [4] was -12.65 mg/dL and the “Serum Uric Acid, Observed, Mean (SD)” value [4] was 0.30 (0.000) mg/dL. The “Serum Uric Acid, Observed, Median” value [4] was 0.30 mg/dL, the “sUA <6 mg/dL, n (%)” value [4] was 2 (100%) and the “Serum Uric Acid, Change … (SD)” value [5] was −12.65 (4.031) mg/dL. The “Serum Uric Acid, Change from Baseline, Median” value [5] was -12.65 mg/dL, the “Serum Uric Acid, Observed, Mean (SD)” value [5] was 0.30 (0.000) mg/dL and the “Serum Uric Acid, Observed, Median” value [5] was 0.30 mg/dL. The “sUA <6 mg/dL, n (%)” value [5] was 2 (100%), the “Serum Uric Acid, Change … (SD)” value (Week 1, mITT Population) was −7.28 (1.556) mg/dL and the “Serum Uric Acid, Change from Baseline, Median” value (Week 1, mITT Population) was -7.75 mg/dL. For the same substance, the “Serum Uric Acid, Observed, Mean (SD)” value (Week 1, mITT Population) was 0.30 (0.000) mg/dL, the “Serum Uric Acid, Observed, Median” value (Week 1, mITT Population) was 0.30 mg/dL and the “sUA <6 mg/dL, n (%)” value (Week 1, mITT Population) was 6 (100%). For the same substance, the “Serum Uric Acid, Change … (SD)” value [6] was −8.86 (2.486) mg/dL, the “Serum Uric Acid, Change from Baseline, Median” value [6] was -8.70 mg/dL and the “Serum Uric Acid, Observed, Mean (SD)” value [6] was 0.30 (0.000) mg/dL. The “Serum Uric Acid, Observed, Median” value [6] was 0.30 mg/dL, the “sUA <6 mg/dL, n (%)” value [6] was 14 (100%) and the “Serum Uric Acid, Change … (SD)” value [7] was −7.90 (2.878) mg/dL. The “Serum Uric Acid, Change from Baseline, Median” value [7] was -8.70 mg/dL, the “Serum Uric Acid, Observed, Mean (SD)” value [7] was 1.26 (2.163) mg/dL and the “Serum Uric Acid, Observed, Median” value [7] was 0.30 mg/dL. For the same substance, the “sUA <6 mg/dL, n (%)” value [7] was 13 (92.9%), the “Serum Uric Acid, Change … (SD)” value [8] was −8.92 (2.577) mg/dL and the “Serum Uric Acid, Change from Baseline, Median” value [8] was -8.80 mg/dL. The “Serum Uric Acid, Observed, Mean (SD)” value [8] was 0.30 (0.000) mg/dL, the “Serum Uric Acid, Observed, Median” value [8] was 0.30 mg/dL and the “sUA <6 mg/dL, n (%)” value [8] was 13 (100%). For the same substance, the “Serum Uric Acid, Change … (SD)” value [9] was −7.54 (3.768) mg/dL, the “Serum Uric Acid, Change from Baseline, Median” value [9] was -8.00 mg/dL and the “Serum Uric Acid, Observed, Mean (SD)” value [9] was 1.61 (2.637) mg/dL. The “Serum Uric Acid, Observed, Median” value [9] was 0.30 mg/dL, the “sUA <6 mg/dL, n (%)” value [9] was 12 (85.7%) and the “Serum Uric Acid, Change … (SD)” value [10] was −8.98 (2.679) mg/dL. The “Serum Uric Acid, Change from Baseline, Median” value [10] was -8.95 mg/dL, the “Serum Uric Acid, Observed, Mean (SD)” value [10] was 0.30 (0.000) mg/dL and the “Serum Uric Acid, Observed, Median” value [10] was 0.30 mg/dL. For the same substance, the “sUA <6 mg/dL, n (%)” value [10] was 12 (100%), the “Serum Uric Acid, Change … (SD)” value [11] was −8.31 (3.538) mg/dL and the “Serum Uric Acid, Change from Baseline, Median” value [11] was -8.80 mg/dL. The “Serum Uric Acid, Observed, Mean (SD)” value [11] was 0.91 (2.191) mg/dL, the “Serum Uric Acid, Observed, Median” value [11] was 0.30 mg/dL and the “sUA <6 mg/dL, n (%)” value [11] was 12 (92.3%). For the same substance, the “Serum Uric Acid, Change … (SD)” value (Week 7, mITT Population) was −8.90 (4.755) mg/dL and the “Serum Uric Acid, Change from Baseline, Median” value (Week 7, mITT Population) was -7.85 mg/dL.
